The source of these data is patent US20240245804A1 (priority 2021, published 2024).

The subject of experiment [1] is STING. The class given is cell-based, mouse.
Experiment [2] deals with STING. It is filed as cell-based, mouse. The source holds these as a separate data set.
Experiment [3] relates to STING. The class given is cell-based, mouse. This is another data set of the same source.
Experiment [4] has as its system STING. The class given is cell-based, mouse. The source holds these as a separate data set.
In experiment [5] the test system is THP1-Blue-ISG reporter cells. The class given is cell-based.

“Also recorded” adds a separate entry of the source.

In the case of `Nc1ncnc2c1ncn2[C@@H]1O[C@@H]2COP(=O)(O)O[C@H]3[C@@H](O)[C@H](n4cnc5c(N)ncnc54)O[C@@H]3COP(=O)(O)O[C@H]2[C@H]1O` [c-di-AMP], in the experiment on STING [1], the “STING agonism / activation of the pathway” value is reported as “agonists of STING; also recorded: stronger activation”. For the same molecule, in the experiment on STING [2], the induction of nitrite result was “more potent induction”. In addition, in the experiment on STING [3], the “induction of IFNß” value is listed as “more potent induction”. For the same molecule, the “STING agonism evidenced by induction of a variety of inflammatory genes” value with STING [4] is listed as “agonists of STING; also recorded: stronger activation”.
With `Nc1nc2c(ncn2[C@@H]2O[C@@H]3COP(=O)(O)O[C@H]4[C@@H](O)[C@H](n5cnc6c(N)ncnc65)O[C@@H]4COP(=O)(O)O[C@@H]2[C@@H]3O)c(=O)[nH]1` [cGAMP, 2′3′-cGAMP], in the experiment on STING [4], the “STING agonism evidenced by induction of a variety of inflammatory genes” value was “agonists of STING”.

B1: CdaA: c-di-AMP cyclase from Listeria monocytogenes, wild type, expressed from plasmid in HEK 293T cells (protein, UniProt Q45589 1-273, looked up)
Cyclic di-AMP synthase CdaA: MAFEDIPFLQYLGNAVDILLVWYVIYKLIMVIRGTKAVQLLKGIVVIVLVRMASQYLGLSTLQWLMDQAITWGFLAIIIIFQPELRRALEQLGRGRFFSRSGTPVEEAQQKTIEAITKAINYMAKRRIGALLTIERDTGMGDYIETGIPLNAKVSSELLINIFIPNTPLHDGAVIMKNNEIAAAACYLPLSESPFISKELGTRHRAAVGISEVTDSLTIIVSEETGGVSVAKNGDLHRELTEEALKEMLEAEFKKNTRDTSSNRWYWRGKKNG
For B1, in experiment [5], the “SEAP activity (activation of interferon signaling)” value is reported as “displayed activity”.
